Data: ChEMBL document CHEMBL1201862, “PubChem BioAssay data set” (2004)
The source made the active and inactive calls.

Tests used:
[1] = microbe, parasite or virus in culture; assay type: functional; conditions: Mycobacterium tuberculosis
Melanocortin receptor 4 [2] = molecular target: T1, Melanocortin receptor 4 (Homo sapiens, UniProt P32245); assay type: functional, cell-based;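 also: Cell-based assay with luminescence read-out, confirmatory dose-response testing for agonist activity of biased ligands at MC4R; human U2OS cells with tagged receptor and beta-arrestin; potency of agonists that increase receptor coupling to beta-arrestin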
T1 sequence (P32245 whole entry): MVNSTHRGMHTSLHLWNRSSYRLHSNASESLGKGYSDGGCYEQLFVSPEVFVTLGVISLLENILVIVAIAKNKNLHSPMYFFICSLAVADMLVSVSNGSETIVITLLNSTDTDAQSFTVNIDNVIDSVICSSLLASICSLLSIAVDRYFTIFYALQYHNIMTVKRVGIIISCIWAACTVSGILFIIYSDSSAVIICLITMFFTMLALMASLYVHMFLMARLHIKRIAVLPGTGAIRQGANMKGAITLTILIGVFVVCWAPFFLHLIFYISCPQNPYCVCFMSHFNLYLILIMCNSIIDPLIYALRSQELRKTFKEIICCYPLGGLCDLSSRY

Protein Wnt-3a = Protein Wnt-3a (Mus musculus, UniProt P27467); test: antagonism of Wnt3a pathway luciferase reporter – Wnt-LIGHT cells, luminescence, selectivity assay for Gli-SUFU antagonist project, dose response (AID 651570); assay type: functional; conditions: read-out: IC50_Mean;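 also: Wnt-LIGHT reporter cells stimulated with conditioned medium from Wnt3a-producing cells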
[3] = tested on: Streptococcus sp. 'group A'; test: Streptococcus pyogenes SK(-)GAS viability under kanamycin – luminescence, BacTiterGlo, confirmation, counter-screen for streptokinase expression inhibitor project, dose response (AID 1900); assay type: functional, organism-based
Streptococcus = test: GAS UMAA2166 growth inhibition – luminescence, BacTiterGlo, counter-screen for streptokinase expression inhibitor project, dose response (AID 1915); assay type: functional, organism-based;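 also: potency for reduction of bacterial viability or growth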
[4] = molecular target: 26S proteasome non-ATPase regulatory subunit 14 (Homo sapiens, UniProt O00487); test: inhibition of proteasome subunit RPN11 – biochemical, fluorescence polarization, uHTS hits, confirmation (AID 602368); assay type: functional
26S proteasome non-ATPase regulatory subunit 14, sequence (O00487 whole entry): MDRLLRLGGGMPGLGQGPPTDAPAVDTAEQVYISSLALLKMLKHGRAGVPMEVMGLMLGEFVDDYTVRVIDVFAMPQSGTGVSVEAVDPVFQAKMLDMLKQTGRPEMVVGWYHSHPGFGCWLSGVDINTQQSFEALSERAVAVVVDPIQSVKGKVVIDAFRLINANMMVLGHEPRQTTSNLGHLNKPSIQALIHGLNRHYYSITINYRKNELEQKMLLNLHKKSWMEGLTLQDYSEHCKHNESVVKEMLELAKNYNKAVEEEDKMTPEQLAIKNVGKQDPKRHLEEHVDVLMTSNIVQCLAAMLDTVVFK

[5] = molecular target: 72 kDa type IV collagenase (Homo sapiens, UniProt P08253); test: Dose Response validation of uHTS RPN11 inhibitor hits using a MMP-2 Fluorescence assay.; assay type: functional
72 kDa type IV collagenase, sequence (P08253 whole entry): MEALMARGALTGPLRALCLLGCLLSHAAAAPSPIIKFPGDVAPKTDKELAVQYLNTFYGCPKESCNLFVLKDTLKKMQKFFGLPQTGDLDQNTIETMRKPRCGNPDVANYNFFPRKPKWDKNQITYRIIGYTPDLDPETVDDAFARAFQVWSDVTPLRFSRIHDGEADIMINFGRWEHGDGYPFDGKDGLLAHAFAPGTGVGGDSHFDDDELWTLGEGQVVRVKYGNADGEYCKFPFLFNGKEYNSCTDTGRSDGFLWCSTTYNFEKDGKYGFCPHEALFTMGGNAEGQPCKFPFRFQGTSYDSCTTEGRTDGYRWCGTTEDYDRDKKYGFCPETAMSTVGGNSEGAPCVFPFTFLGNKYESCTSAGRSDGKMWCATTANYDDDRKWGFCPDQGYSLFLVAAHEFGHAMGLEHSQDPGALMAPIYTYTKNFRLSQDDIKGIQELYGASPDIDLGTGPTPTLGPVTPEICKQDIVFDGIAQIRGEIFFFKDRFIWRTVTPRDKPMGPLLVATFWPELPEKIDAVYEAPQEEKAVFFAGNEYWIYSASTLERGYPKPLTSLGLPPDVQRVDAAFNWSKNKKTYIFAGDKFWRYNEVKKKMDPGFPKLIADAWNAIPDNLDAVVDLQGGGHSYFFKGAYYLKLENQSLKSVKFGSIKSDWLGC

Prothrombin = Prothrombin (Bos taurus, UniProt P00735); test: thrombin protease inhibitors – biochemical, fluorescence polarization, uHTS hits, dose response (AID 602369); assay type: functional
[6] = molecular target: Potassium voltage-gated channel subfamily KQT member 2 (Rattus norvegicus, UniProt O88943); test: blockers of KCNQ2 channel current – cell-based, automated electrophysiology, set II, rat KCNQ2, dose response (AID 588637); assay type: functional
Potassium voltage-gated channel subfamily KQT member 2, sequence (O88943 whole entry): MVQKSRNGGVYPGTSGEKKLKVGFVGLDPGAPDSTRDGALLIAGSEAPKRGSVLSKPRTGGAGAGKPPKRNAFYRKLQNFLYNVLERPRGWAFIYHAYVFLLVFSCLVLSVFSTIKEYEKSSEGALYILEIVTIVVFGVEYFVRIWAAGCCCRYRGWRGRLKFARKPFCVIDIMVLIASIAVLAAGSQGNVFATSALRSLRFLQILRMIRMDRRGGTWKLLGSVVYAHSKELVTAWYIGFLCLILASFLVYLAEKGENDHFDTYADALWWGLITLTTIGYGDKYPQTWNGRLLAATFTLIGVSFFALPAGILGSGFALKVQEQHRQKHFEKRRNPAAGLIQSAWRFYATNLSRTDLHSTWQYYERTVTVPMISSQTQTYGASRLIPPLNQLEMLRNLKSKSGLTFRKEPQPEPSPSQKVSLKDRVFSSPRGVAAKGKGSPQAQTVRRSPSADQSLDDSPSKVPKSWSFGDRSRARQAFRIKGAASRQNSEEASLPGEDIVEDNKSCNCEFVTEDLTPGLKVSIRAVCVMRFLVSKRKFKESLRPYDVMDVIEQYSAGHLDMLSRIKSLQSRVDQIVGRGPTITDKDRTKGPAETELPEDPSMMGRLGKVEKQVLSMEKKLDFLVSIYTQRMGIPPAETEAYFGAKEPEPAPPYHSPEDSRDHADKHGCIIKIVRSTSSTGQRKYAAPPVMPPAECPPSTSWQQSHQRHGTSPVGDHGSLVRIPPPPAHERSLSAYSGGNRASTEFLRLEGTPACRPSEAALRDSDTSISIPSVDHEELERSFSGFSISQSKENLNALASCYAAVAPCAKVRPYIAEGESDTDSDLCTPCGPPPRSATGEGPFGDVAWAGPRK

[7] = molecular target: Ras and Rab interactor 1/Tyrosine-protein kinase ABL1 (Homo sapiens, UniProt P00519+Q13671); assay type: functional;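 also: biochemical TR-FRET dose-response test measuring inhibition of binding between Rin1 and Abl proteins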
Ras and Rab interactor 1/Tyrosine-protein kinase ABL1, sequence (P00519 whole entry): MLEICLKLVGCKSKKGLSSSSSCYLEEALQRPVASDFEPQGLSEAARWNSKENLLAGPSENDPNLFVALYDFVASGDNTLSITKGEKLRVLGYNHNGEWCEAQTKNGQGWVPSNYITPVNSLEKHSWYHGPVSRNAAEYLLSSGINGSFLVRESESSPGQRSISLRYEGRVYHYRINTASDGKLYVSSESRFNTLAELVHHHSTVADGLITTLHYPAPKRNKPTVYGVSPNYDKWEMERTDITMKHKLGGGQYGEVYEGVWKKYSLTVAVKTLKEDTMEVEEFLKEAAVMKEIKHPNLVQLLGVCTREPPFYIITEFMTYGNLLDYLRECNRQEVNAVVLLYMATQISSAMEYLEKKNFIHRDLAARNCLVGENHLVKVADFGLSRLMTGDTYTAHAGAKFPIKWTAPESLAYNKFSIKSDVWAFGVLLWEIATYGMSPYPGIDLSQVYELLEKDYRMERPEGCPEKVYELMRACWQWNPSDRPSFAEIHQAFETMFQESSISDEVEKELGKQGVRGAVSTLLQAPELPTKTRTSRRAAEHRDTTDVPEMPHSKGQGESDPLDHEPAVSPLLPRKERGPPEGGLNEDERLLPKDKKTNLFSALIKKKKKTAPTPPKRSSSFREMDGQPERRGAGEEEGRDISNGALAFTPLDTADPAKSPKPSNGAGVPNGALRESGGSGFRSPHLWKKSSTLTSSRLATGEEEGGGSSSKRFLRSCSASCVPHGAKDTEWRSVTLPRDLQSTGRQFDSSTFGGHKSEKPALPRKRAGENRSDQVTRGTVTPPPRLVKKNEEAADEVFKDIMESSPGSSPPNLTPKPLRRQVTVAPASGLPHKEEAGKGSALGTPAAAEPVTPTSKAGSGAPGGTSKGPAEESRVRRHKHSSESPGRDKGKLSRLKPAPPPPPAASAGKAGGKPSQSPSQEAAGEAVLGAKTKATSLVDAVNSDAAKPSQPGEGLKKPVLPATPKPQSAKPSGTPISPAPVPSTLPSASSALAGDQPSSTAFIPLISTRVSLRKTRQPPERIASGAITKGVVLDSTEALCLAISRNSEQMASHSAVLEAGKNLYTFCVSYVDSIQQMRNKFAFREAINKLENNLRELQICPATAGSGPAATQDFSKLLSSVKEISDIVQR
Ras and Rab interactor 1/Tyrosine-protein kinase ABL1, sequence (Q13671 whole entry): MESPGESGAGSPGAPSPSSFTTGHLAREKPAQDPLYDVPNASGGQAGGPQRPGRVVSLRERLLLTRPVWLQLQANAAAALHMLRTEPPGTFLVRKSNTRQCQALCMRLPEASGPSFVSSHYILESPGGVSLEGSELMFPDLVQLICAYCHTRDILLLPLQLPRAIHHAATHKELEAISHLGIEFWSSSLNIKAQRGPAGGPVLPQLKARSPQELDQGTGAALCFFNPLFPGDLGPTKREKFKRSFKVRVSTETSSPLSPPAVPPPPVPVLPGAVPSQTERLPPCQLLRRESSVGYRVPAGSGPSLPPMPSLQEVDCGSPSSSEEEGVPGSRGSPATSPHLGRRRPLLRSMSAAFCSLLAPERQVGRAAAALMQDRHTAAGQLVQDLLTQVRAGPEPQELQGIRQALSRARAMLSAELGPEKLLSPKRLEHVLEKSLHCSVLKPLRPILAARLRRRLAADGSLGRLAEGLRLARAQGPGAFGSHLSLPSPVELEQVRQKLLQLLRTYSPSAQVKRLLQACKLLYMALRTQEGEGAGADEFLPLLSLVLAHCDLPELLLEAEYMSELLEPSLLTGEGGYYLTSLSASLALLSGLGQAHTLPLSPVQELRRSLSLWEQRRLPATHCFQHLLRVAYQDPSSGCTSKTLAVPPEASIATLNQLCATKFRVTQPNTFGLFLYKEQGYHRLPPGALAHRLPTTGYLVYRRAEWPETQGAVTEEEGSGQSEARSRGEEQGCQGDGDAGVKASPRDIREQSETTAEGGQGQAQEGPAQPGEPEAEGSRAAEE

[8] = molecular target: T2, DNA dC->dU-editing enzyme APOBEC-3A (Homo sapiens, UniProt P31941); test: Dose Response confirmation of small molecule APOBEC3A DNA Deaminase Inhibitors via a fluorescence-based single-stranded DNA deaminase assay. [Related pubchem assays (depositor defined):AID493011, AID493024]; assay type: functional
T2 sequence (P31941 whole entry): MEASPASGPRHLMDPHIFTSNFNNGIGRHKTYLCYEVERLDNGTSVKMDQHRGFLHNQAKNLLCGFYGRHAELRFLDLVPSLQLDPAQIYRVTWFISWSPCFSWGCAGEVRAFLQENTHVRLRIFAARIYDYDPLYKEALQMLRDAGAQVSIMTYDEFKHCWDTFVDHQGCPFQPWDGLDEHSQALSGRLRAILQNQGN

[9] = molecular target: T3, DNA dC->dU-editing enzyme APOBEC-3G (Homo sapiens, UniProt Q9HC16); assay type: functional
T3 sequence (Q9HC16 whole entry): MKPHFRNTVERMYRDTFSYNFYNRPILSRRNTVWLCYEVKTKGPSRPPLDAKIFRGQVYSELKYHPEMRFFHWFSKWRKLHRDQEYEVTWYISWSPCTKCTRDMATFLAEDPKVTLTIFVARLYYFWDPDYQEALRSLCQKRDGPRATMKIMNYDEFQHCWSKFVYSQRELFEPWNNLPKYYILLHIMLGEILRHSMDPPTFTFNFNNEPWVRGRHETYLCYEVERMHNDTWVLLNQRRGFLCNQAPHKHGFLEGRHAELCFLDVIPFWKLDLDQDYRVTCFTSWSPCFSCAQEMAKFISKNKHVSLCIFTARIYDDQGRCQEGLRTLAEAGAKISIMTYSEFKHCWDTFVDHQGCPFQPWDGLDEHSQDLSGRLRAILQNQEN

[10] = molecular target: T2, DNA dC->dU-editing enzyme APOBEC-3A; test: SAR analysis of small molecule inhibitors of APOBEC3A DNA Deaminase via a fluorescence-based single-stranded DNA deaminase assay - Set 2.; assay type: functional; conditions: read-out: IC50_Mean
[11] = molecular target: T3, DNA dC->dU-editing enzyme APOBEC-3G; test: SAR analysis of small molecule inhibitors of APOBEC3G DNA Deaminase via a fluorescence-based single-stranded DNA deaminase assay - Set 2.; assay type: functional; conditions: read-out: IC50_Mean
[12] = molecular target: T3, DNA dC->dU-editing enzyme APOBEC-3G; test: inhibition of APOBEC3G ssDNA deamination – biochemical, fluorescence, single-stranded DNA substrate, SAR follow-up (AID 602136); assay type: functional; conditions: read-out: IC50_Mean
[13] = molecular target: T2, DNA dC->dU-editing enzyme APOBEC-3A; test: SAR analysis of small molecule inhibitors of APOBEC3A DNA Deaminase via a fluorescence-based single-stranded DNA deaminase assay.; assay type: functional; conditions: read-out: IC50_Mean
[14] = molecular target: T4, Mitochondrial peptide methionine sulfoxide reductase (Bos taurus, UniProt P54149); assay type: functional;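 also: absorbance read-out, biochemical high-throughput dose-response screen for MsrA inhibitors, confirmatory; recombinant bovine MsrA coupled to E. coli TrxB with NADPH and selenocystamine; potency is for inhibitors of MsrA activity on DMSO substrate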
T4 sequence (P54149 whole entry): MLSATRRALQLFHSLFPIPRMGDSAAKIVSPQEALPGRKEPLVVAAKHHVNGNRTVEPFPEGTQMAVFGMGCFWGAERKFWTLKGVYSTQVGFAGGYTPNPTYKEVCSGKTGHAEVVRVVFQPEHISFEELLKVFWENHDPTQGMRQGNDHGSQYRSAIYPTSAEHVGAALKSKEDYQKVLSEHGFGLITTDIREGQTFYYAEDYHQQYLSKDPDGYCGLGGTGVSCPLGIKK

CHO = CHO cell viability loss, potency – luminescence, cytotoxicity control for TLR9-MyD88 binding inhibitor project, dose response (AID 588339); assay type: functional, cell-based, hamster; conditions: Cricetulus griseus;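 also: CHO cells stably coexpressing TLR9 and MyD88 fusions from primary screen; compound exposure lasted 48 hours before viability readout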
Beta Lactamase = Beta Lactamase (Pseudomonas aeruginosa, UniProt Q932Y6); test: BLA reporter interference, concentration series – BLA reporter cells, FRET fluorescence, artefact control for TLR9-MyD88 binding inhibitor project, dose response (AID 588341); assay type: cell-based;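 also: cell based assay in CHO-K1 cells stably expressing beta-lactamase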
Melanocortin receptor 4 [15] = molecular target: T1, Melanocortin receptor 4; test: inhibitors of MC4R cAMP signaling – cell-based, TR-FRET, biased antagonists, dose response (AID 602298); assay type: functional;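 also: antagonist potency against agonist-stimulated cAMP production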
[16] = cAMP pathway inhibition in counterscreen cell line – TR-FRET cAMP detection, counter-screen for MC4R biased antagonist project, dose response (AID 602305); assay type: functional, cell-based;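 also: U2OS cells stimulated with forskolin near its EC80 as the cAMP inducer; potency is for inhibition of forskolin-stimulated cAMP signaling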
[17] = inhibition of ARNT PAS-B/TACC3 complex formation – biochemical, AlphaScreen, cherry-picked samples, confirmation (AID 651703); assay type: functional, Homo sapiens;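 also: His-tagged ARNT PAS-B domain paired with GST-TACC3 E629A dimer coactivator fragment; potency of inhibitors that break up the complex and lower AlphaScreen signal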
[18] = molecular target: T5, Apoptotic protease-activating factor 1 (Homo sapiens, UniProt O14727); test: SAR analysis of small molecule Activators of Apaf-1 in a Fluorescent assay.; assay type: functional; conditions: read-out: EC50_Mean;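 also: caspase-3 cleavage of fluorogenic Rh110 DEVD substrate downstream of apoptosome activation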
T5 sequence (O14727 whole entry): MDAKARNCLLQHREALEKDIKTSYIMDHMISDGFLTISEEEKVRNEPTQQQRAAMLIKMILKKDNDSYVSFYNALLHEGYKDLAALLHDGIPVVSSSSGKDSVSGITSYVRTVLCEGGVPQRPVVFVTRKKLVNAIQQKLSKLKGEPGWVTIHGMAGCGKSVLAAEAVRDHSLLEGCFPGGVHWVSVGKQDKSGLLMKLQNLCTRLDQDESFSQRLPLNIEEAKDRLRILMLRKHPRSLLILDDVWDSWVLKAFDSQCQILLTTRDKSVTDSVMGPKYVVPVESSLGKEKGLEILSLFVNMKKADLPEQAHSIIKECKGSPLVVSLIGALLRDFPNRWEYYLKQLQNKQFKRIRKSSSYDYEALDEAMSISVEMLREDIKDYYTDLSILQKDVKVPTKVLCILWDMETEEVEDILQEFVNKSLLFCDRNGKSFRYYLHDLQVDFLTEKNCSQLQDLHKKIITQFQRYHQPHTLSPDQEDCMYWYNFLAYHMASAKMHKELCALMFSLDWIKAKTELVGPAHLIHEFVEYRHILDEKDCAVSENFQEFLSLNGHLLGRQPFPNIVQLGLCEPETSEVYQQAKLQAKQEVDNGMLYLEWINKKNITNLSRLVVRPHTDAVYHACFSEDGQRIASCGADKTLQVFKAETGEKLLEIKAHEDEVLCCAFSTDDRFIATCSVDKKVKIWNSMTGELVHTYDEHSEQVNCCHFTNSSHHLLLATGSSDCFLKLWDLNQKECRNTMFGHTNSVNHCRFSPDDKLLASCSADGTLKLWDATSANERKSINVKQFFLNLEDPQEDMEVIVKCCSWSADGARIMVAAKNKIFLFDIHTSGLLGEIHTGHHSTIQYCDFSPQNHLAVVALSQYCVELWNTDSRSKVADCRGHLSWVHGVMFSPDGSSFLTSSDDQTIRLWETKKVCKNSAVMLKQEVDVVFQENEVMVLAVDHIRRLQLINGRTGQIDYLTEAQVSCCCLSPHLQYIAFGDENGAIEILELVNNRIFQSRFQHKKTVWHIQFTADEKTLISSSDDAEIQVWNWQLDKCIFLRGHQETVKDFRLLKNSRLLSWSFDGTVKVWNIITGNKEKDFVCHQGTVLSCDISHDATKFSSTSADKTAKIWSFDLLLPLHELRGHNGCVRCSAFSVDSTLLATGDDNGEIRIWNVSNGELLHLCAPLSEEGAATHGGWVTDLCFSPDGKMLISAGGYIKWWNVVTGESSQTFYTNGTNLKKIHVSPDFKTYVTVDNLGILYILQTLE

[19] = molecular target: Testis-specific serine/threonine-protein kinase 2 (Homo sapiens, UniProt Q96PF2); assay type: functional;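 also: part of the Navigating the Kinome panel, target entry STK22B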
Testis-specific serine/threonine-protein kinase 2, sequence (Q96PF2 whole entry): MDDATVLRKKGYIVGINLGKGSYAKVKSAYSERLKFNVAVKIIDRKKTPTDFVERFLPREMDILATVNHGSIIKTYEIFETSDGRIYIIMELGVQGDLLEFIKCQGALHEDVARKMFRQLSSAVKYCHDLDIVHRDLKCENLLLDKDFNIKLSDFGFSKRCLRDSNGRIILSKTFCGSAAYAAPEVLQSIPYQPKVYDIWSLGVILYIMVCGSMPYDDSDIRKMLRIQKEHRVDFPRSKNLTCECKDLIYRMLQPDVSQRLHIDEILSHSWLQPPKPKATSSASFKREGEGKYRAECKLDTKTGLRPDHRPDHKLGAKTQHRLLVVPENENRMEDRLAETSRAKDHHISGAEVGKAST

Which CC50 [1] does the source give for `COC(=O)c1c(NC(=O)CC2SC(N)=NC2=O)sc2c1CCC(C(C)(C)C)C2` (stereo unspecified) here?
The CC50 was > 40 µM (active).

What about the EC50 (Melanocortin receptor 4 [2]) of the same compound?
The EC50 was > 89.2 µM (inactive).

Which IC50 (Protein Wnt-3a) does the source give for `COc1ccc(NS(=O)(=O)c2ccc(N3CCN(CCO)CC3)c([N+](=O)[O-])c2)cc1` here?
Its IC50 is 0.83 µM (active).

Which results are given for `CC(C)c1ccc(N2C(=O)/C(=C/NNC(=O)c3ccccc3O)C(=O)NC2=S)cc1`?
EC50 [3]: 7.63 µM (active); EC50 (Streptococcus): 7.21 µM (active); IC50 [4]: 52.9 µM (active); IC50 [5]: 45.2 µM (active); IC50 (Prothrombin): 48.4 µM (active)

With `O=C(CSc1nc2ccccc2c(=O)n1NC(=O)c1ccccc1)c1ccccc1` as the compound, how does the IC50 [6] read?
The IC50 was 0.513 µM (active).

Which IC50 [7] does the source give for `Cn1c(=O)[nH]c(=O)c2c1nc(NCc1ccco1)n2Cc1ccccc1Cl` here?
Its IC50 is > 73.4 µM (inactive).

Which IC50 [8] does the source give for `CC(C)(C)NC(=O)CSc1nc2ccc(NC(=O)CSc3nnc(N)s3)cc2s1` here?
Its IC50 is 3.87 µM (active).

And the IC50 [9]?
Its IC50 is 18.4 µM (active).

And the IC50 [10]?
Its IC50 is > 99 µM (inactive).

What about the IC50 [11] of the same compound?
Its IC50 is 1.54 µM (active).

And the IC50 [12]?
The IC50 was 6.68 µM (active).

What about the IC50 [13] of the same compound?
Its IC50 is 17.1 µM (inactive).

Which IC50 [14] does the source give for `O=C(O)c1ccc(NS(=O)(=O)c2ccc3c(c2)C(=O)c2ccccc2C3=O)cc1` here?
Its IC50 is 91.2 µM (inactive).

For `O=C(NCc1ccco1)c1cccc2c1C(=O)c1ccc(N3CCC(Cc4ccccc4)CC3)cc1S2(=O)=O`, which IC50 (CHO) is on record?
Its IC50 is > 49.8 µM (inactive).

What about the IC50 (Beta Lactamase) of the same compound?
Its IC50 is 4.4 µM (active).

Which IC50 (Melanocortin receptor 4 [15]) does the source give for `CCc1nc2ccc(C(=O)NCc3ccc4c(c3)OCO4)cn2c1N(CCC(C)C)CCN(C)C` here?
The IC50 was 11.5 µM (inactive).

And the IC50 [16]?
Its IC50 is > 64.6 µM (inactive).

Which AC50 [17] does the source give for `CC1CCCC(C)N1C(=O)COC(=O)c1ccc([N+](=O)[O-])o1` (stereo unspecified) here?
The AC50 was 95.7 µM (active).

For `O=C1CC2(CC(c3ccccc3Cl)=NO2)C(=O)N1c1ccc2ccccc2c1` (stereo unspecified), which EC50 [18] is on record?
Its EC50 is > 100 µM (inactive).

For `COc1ccc(/C=N/Nc2cc(C)nc(NS(=O)(=O)c3ccc(C)cc3)n2)cc1`, which IC50 (Melanocortin receptor 4 [15]) is on record?
Its IC50 is > 64.6 µM (inactive).

What about the IC50 [16] of the same compound?
The IC50 was > 64.6 µM (inactive).

Which Ki [19] does the source give for `CC1CCN(C(=O)CC#N)CC1N(C)c1ncnc2[nH]ccc12` (stereo unspecified) here?
The Ki was > 1.58 µM (inactive).
